Laboratory results: patent publication US20150133554A1, “PURIFICATION OF DPA ENRICHED OIL” (Omega Protein Corporation, priority 2013, published 2015)
Where two headings read alike, the source gives them in different places.

Key:
THP-1 cells [1] = assay: Cytokine release (TNF-α, MCP-1, IL-6) by LPS-stimulated THP-1 macrophages after fatty acid incubation; format: cell-based; settings: compared to control macrophages; for Inflammatory cytokine release (TNF-α, MCP-1, IL-6): 24 h fatty acid (50 and 100 μM), then 24 h LPS; for Cytokine release with increasing concentration of fatty acids: 50 to 100 μM
Protocol: (§1) THP-1 cells were maintained in RPMI 1640+2 mM L-Glutamine, 10 mM HEPES, 1 mM sodium pyruvate, 4500 mg/L glucose, and 1500 mg/L sodium bicarbonate; supplemented with 3.5 μL/L of 2-mercaptoethanol and 10% fetal bovine serum (FBS). Cell line was maintained in 75 cm^2 filtered cap flasks in a 37° C. incubator with 5% CO2. THP-1 cells were seeded in 24 well plates at 5×10^5 cells/mL using 600 μL/well and allowed to differentiate into macrophages (MΦ) for 72 h with phorbol 12-myristate 13-acetate (PMA) at a final concentration of 50 ng/mL.
Experiment 1: Prior to incubation with individual fatty acids, the cells were starved for 8 h in a 2% lipo-free FBS RPMI medium. Individual fatty acids were added in duplicate into the 24 well plate at two concentrations, 50 μM and 100 μM. Every assay was cultured in three runs with duplicates in each run pooled. After incubation for 24 h with fatty acids the MΦ were scraped off the plates and fatty acids were isolated as described in the ‘Animal Tests’ portion of this Example. The fatty acid profiles of the MΦ were determined as previously described (Wang, et al., 2010, Clin. Nutr., DOI: 10.1016/j.clnu.2013.04.009).
(§2) Experiment 2: Previously differentiated MΦ were incubated with fatty acids as described in ‘Experiment 1’ for 24 hours. At the 24 h time point the cells were then stimulated with lipopolysaccharide from E. coli 0111:B4 for another 24 hours. The plates were centrifuged at 1200×g for 5 minutes and supernatant was then collected and analyzed for cytokines. The MΦ were scraped off the plates and fatty acids were isolated as described in the ‘Animal Portion’. The fatty acid profiles of the MΦ were determined as previously described (Wang, et al., 2010, Clin. Nutr., DOI: 10.1016/j.clnu.2013.04.009).
A linear mixed effects model was used in R, lme in the nlme package, for estimating treatment effects on cytokine production in LPS stimulated THP-1 cells. The fixed effects fit were treatment, FA concentration, and when significant LPS concentration was fit as a covariate, the plate cells were cultured on nested within run was fit as a random effect. Least squares means were analyzed as outlined above and pairwise comparisons were made between treatments for FA concentration, or where significant LPS concentration.
The objective of this study was to determine if docosapentaenoic acid n-3 (DPAn3) enrichment of macrophages (MΦ) changed their inflammatory response relative to saturated (S), mono-unsaturated (MU), and other poly-unsaturated (PU) fatty acids (FA). Differentiated THP-1 cells were incubated with one of 11 FA (50 and 100 μM) of varying degrees of unsaturation or no FA for 24 h prior to 24 h of stimulation with lipopolysaccharide from E. coli. Fatty acids were collected from MΦ without stimulation to determine the fatty acid profiles. Media was collected from MΦ post-stimulation and probed for prostaglandin E2, and cytokines, including tumor necrosis factor-α, monocyte chemoattractant protein-1, and interleukin-6. Prostaglandin E2 production was greater (P<0.05) for AA than all other FA, and omega-3 PUFA decreased (P<0.01) PGE2 compared to n6 PUFA and all other FA.

THP-1 cells [2] = assay: Prostaglandin E2 production by LPS-stimulated THP-1 macrophages after fatty acid incubation; format: cell-based; settings: 24 h fatty acid (50 and 100 μM), then 24 h LPS; compared to other FA
Protocol: as §1, §2
The objective of this study was to determine if docosapentaenoic acid n-3 (DPAn3) enrichment of macrophages (MΦ) changed their inflammatory response relative to saturated (S), mono-unsaturated (MU), and other poly-unsaturated (PU) fatty acids (FA). […]

[3] = tested on: murine peritoneal macrophages; settings: cited from earlier work
LDLr−/− mice [4] = assay: Lipid and cholesterol (TC, FC, CE) in aortas of LDLr−/− mice fed an atherogenic diet; format: in vivo; settings: supplement 0.76% w/w of the diet
Source text: (§3) 48 male LDLr−/− mice (8-10 weeks of age, ˜20 g) were obtained from Jackson Laboratories (stock #2207) and allowed to acclimate to the cages, room, and feeding design for 12 days. After the acclimation period mice were weighed and randomly assigned to one of six treatments. Mice were fed an isolipid (20% total fatty acids w/w), isonitrogenous, and 0.2% cholesterol (w/w) diet, which is considered atherogenic (Ain76, 58TQ TestDiet®) as a base diet. This base diet was formulated to meet or exceed all nutrient and energy requirements for a growing mouse. The treatments were added to the base diet (0.76% w/w of the total diet) and was made once at the beginning of the study, separated into weekly aliquots, stored at −80° C., allowed to thaw at 4° C. for 2 days prior to feeding, and stored at 4° C. until fed. A sample from each weekly aliquot was collected, composited, and archived for fatty acid analysis at a later date. […]
(§4) Mouse body weights were recorded once weekly in conjunction with cage changes. Blood serum lipid profiles were analyzed on blood samples from the mice before (subset of 6 mice), 10 weeks, and 20 weeks relative to initiation of dietary treatments. […] Total lipid content was measured using the procedure outline by Folch, et al. (1957) J. Biol. Chem., 226:497-509, prior to cholesterol assessment. Total cholesterol, free cholesterol, and cholesterol ester were quantified as previously described (Wang, et al., 2010, Clin. Nutr., DOI: 10.1016/j.clnu.2013.04.009).
An analysis of variance model was used in R, aov in the stats package, for estimating treatment effects on cholesterol deposition in mouse aortas. Least squares means and contrasts were analyzed as outlined above. […]

LDLr−/− mice [5] = assay: Serum lipid profile of LDLr−/− mice fed an atherogenic diet; format: in vivo; settings: week 20
Source text: (§5) 48 male LDLr−/− mice (8-10 weeks of age, ˜20 g) were obtained from Jackson Laboratories (stock #2207) and allowed to acclimate to the cages, room, and feeding design for 12 days. After the acclimation period mice were weighed and randomly assigned to one of six treatments. Mice were fed an isolipid (20% total fatty acids w/w), isonitrogenous, and 0.2% cholesterol (w/w) diet, which is considered atherogenic (Ain76, 58TQ TestDiet®) as a base diet. This base diet was formulated to meet or exceed all nutrient and energy requirements for a growing mouse. The treatments were added to the base diet (0.76% w/w of the total diet) and was made once at the beginning of the study, separated into weekly aliquots, stored at −80° C., allowed to thaw at 4° C. for 2 days prior to feeding, and stored at 4° C. until fed. A sample from each weekly aliquot was collected, composited, and archived for fatty acid analysis at a later date. The treatments were as follows: (1) Negative control diet, 3.5% of the total fatty acids were replaced with milk fat (the only source of fat in the base diet), (2) 3.5% of the total fatty acids were replaced with purified ethyl esters of DHA, (3) 3.5% of the total fatty acids were replaced with purified ethyl esters of DPAn3, (4) 3.5% of the total fatty acids were replaced with purified ethyl esters of EPA, (5) 3.5% of the total fatty acids were replaced with omega-3 fatty acids from Lovaza® (GlaxoSmithKline), and (6) 3.5% of the total fatty acids were replaced with omega-3 fatty acids from ΩmegaActiv® DPA 5000 (Omega Protein Inc., Houston, Tex.; Table 1).
Mouse body weights were recorded once weekly in conjunction with cage changes. Blood serum lipid profiles were analyzed on blood samples from the mice before (subset of 6 mice), 10 weeks, and 20 weeks relative to initiation of dietary treatments. Three to five days prior to the end of the study each mouse was administered an intraperitoneal injection of 1.0 mL thioglycollate broth (4.05 g/dL) to elicit peritoneal macrophages. The peritoneal cells centrifuged then cultured in RPMI 1640 (+2 mM L-glutamine, +10 mM HEPES, +1 mM sodium pyruvate, +4500 mg/L glucose, +1500 mg/L sodium bicarbonate) on tissue culture plates (size) which allowed for adhesion of the macrophages. Plates where then vigorously washed to ensure proper macrophage isolation. Macrophages were scraped off the plates and aliquotted into a glass tube for fatty acid extraction, which was then performed via a modified Folch method. The heart and aorta were isolated from each mouse and immediately frozen in liquid nitrogen for later dissection. Aortic arches were dissected from the aortic root to the abdominal aorta using a microscope. Total lipid content was measured using the procedure outline by Folch, et al. (1957) J. Biol. Chem., 226:497-509, prior to cholesterol assessment. Total cholesterol, free cholesterol, and cholesterol ester were quantified as previously described (Wang, et al., 2010, Clin. Nutr., DOI: 10.1016/j.clnu.2013.04.009).
Average daily feed intake for the mice was cut into quartiles in order to assign a feed consumption class. A linear mixed effects model was used in R, lme in the nlme package, for estimating treatment effects on blood lipid profiles in mice. The fixed effects fit were treatment, and week of study, animal nested within treatment was fit as a random effect. Least squares means were calculated using the lsmeans package for all blood lipid profiles and a general linear hypothesis test, using glht in the multcomp package, was utilized for specified contrasts, control vs. the average of all omega-3 containing diets. Because Lovaza® is composed of high and almost equal levels of EPA and DHA we also contrasted the diet supplemented with Lovaza® to the average of the diets supplemented with EPA and DHA alone. Pairwise comparisons were made between time of blood analysis, and between treatments at each individual time frame.

LDLr−/− mice [6] = assay: Serum glucose of LDLr−/− mice fed an atherogenic diet; format: in vivo; settings: week 20
Source text: as §3, §4
Average daily feed intake for the mice was cut into quartiles in order to assign a feed consumption class. […] Least squares means were calculated using the lsmeans package for all blood lipid profiles and a general linear hypothesis test, using glht in the multcomp package, was utilized for specified contrasts, control vs. the average of all omega-3 containing diets. […]

TNF-α [7] = assay: TNF-α concentration in adipose tissue of mice fed omega-3 products; format: in vivo
Source text: as §5
TNF-α concentration in adipose tissue of mice fed with different omega-3 products

IL-8 [8] = assay: Fluorescence intensity (relative) of brain microvessel, IL-8; format: in vivo, mice; settings: control = 1.00
Source text: as §5, with “1). […]” for “1).”

MCP-1 = assay: Fluorescence intensity (relative) of brain microvessel, MCP-1; format: in vivo, mice; settings: control = 1.00
Source text: as §5, with “1). […]” for “1).”

IL-8 [9] = assay: Fluorescence intensity (relative) of brain hippocampus, IL-8; format: in vivo, mice; settings: control = 1
Source text: as §5, with “1). […]” for “1).”

TIMP2 = assay: Fluorescence intensity (relative) of brain hippocampus, TIMP2; format: in vivo, mice; settings: control = 1
Source text: as §5, with “1). […]” for “1).”

TNF-α [10] = assay: Fluorescence intensity (relative) of brain hippocampus, TNF-α; format: in vivo, mice; settings: control = 1
Source text: as §5, with “1). […]” for “1).”

SMILES	Inflammatory cytokine release (TNF-α, MCP-1, IL-6) (THP-1 cells [1])	Prostaglandin E2 production (THP-1 cells [2])	TNF-α production ([3]; AA at 2-5 μM)	TNF-α production ([3]; AA at concentrations as low as 1 μM)	Cytokine release with increasing concentration of fatty acids (THP-1 cells [1])	Aorta lipid (LDLr−/− mice [4]) [%]	Serum LDL cholesterol (LDLr−/− mice [5]) [mg/dL]	Serum total cholesterol (LDLr−/− mice [5]) [mg/dL]	Glucose concentration in serum (LDLr−/− mice [6]) [mg/dL]	TNF-α Concentration (TNF-α [7]) [pg/μg protein]	IL-8 fluorescence intensity (relative) (IL-8 [8])	MCP-1 fluorescence intensity (relative) (MCP-1)	IL-8 fluorescence intensity (relative) (IL-8 [9])	TIMP2 fluorescence intensity (relative) (TIMP2)	TNF-α fluorescence intensity (relative) (TNF-α [10])
CCCCC/C=C\C/C=C\C/C=C\C/C=C\CCCC(=O)O [AA, arachidonic acid]	decreased	greater	completely inhibited	decreased	–	–	–	–	–	–	–	–	–	–	–
CCCCCCCCCCCCCCCC(=O)O [C16:0]	did not change	–	–	–	did not change, or increased	–	–	–	–	–	–	–	–	–	–
CCCCCCCCCCCCCCCCCC(=O)O [C18:0]	did not change	–	–	–	did not change, or increased	–	–	–	–	–	–	–	–	–	–
CC/C=C\C/C=C\C/C=C\C/C=C\C/C=C\C/C=C\CCC(=O)O [DHA, docosahexaenoic acid]	–	–	–	–	–	36.38	495.51	726.86	172.58	0.82	0.86	0.93	0.46	0.23	0.29
CC/C=C\C/C=C\C/C=C\C/C=C\C/C=C\CCCCCC(=O)O [DPA, docosapentaenoic acid]	–	–	–	–	–	29.52	563.45	692.98	166.23	0.41	0.96	0.92	0.70	0.17	0.28
CC/C=C\C/C=C\C/C=C\C/C=C\C/C=C\CCCC(=O)O [EPA, eicosapentaenoic acid]	–	–	–	–	–	29.93	562.07	663.37	198.65	0.58	0.93	0.96	0.72	0.63	0.31
CCCCCCCC/C=C\CCCCCCCC(=O)O [oleic acid]	did not change	–	–	–	did not change, or increased	–	–	–	–	–	–	–	–	–	–
